Data set [1] addresses T1, Taste receptor type 2 member 46 (Homo sapiens) (UniProt P59540).
T1 sequence (whole entry): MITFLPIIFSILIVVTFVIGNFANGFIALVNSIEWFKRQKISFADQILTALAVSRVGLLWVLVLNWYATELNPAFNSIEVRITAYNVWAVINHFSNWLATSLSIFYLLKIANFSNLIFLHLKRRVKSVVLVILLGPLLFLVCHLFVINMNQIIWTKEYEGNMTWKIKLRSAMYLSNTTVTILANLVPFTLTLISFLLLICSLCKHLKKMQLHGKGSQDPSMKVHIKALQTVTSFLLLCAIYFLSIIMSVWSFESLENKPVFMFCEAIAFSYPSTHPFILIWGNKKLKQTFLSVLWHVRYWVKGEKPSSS
The experiment in a line: Agonist activity at human TAS2R46 expressed in human BEAS2B cells assessed as increase in cytosolic calcium level at 1 mM in presence of 100 uM TAS2R46 antagonist 3HDC by Fluo-2-AM dye based fluorescence assay. It is filed as functional, cell-based.

Data set [2] has as its target T1, Taste receptor type 2 member 46 (Homo sapiens). The experiment in a line: Agonist activity at human TAS2R46 expressed in human BEAS2B cells assessed as antiinflammatory activity by measuring reduction in PMA-induced superoxide anion generation at 1 uM preincubated for 1 hr followed by PMA addition and measured after 30 mins by cytochrome C reduction assay. It is filed as cell-based.

Data set [3] shares this target. Put plainly: Agonist activity at human TAS2R46 expressed in human BEAS2B cells assessed as antiinflammatory activity by measuring reduction in PMA-induced IL-1beta gene expression at 1 uM incubated for 18 hrs in presence of 1 uM TAS2R46 antagonist 3HDC by qRT-PCR analysis. It is filed as cell-based.
Data set [4] shares this target. Put plainly: Agonist activity at human TAS2R46 expressed in human BEAS2B cells assessed as increase in cytosolic calcium level at 1 mM by Fluo-2-AM dye based fluorescence assay. It counts as functional, cell-based.
The target is the same in data set [5]. Put plainly: Agonist activity at human TAS2R46 expressed in PMA-induced human BEAS2B cells assessed as antiinflammatory activity by measuring increase in IL-4 gene expression at 1 uM incubated for 18 hrs by qRT-PCR analysis. It is filed as cell-based. On the technique in general: In qPCR the cycle at which signal appears reflects the starting amount.
For data set [6] the target is unchanged. Put plainly: Agonist activity at human TAS2R46 expressed in human BEAS2B cells assessed as antiinflammatory activity by measuring reduction in PMA-induced IL-1beta gene expression at 10 uM incubated for 18 hrs in presence of 1 uM TAS2R46 antagonist 3HDC by qRT-PCR analysis. It counts as cell-based.
For data set [7] the target is unchanged. Put plainly: Agonist activity at human TAS2R46 expressed in human BEAS2B cells assessed as antiinflammatory activity by measuring reduction in PMA-induced MUC5AC gene expression at 1 to 10 uM incubated for 18 hrs by qRT-PCR analysis. It is filed as cell-based.
Data set [8] shares this target. The experiment in a line: Agonist activity at human TAS2R46 expressed in human BEAS2B cells assessed as antioxidant activity by measuring reduction in PMA-induced superoxide anion generation at 10 uM preincubated for 1 hr followed by PMA addition and measured after 30 mins in presence of 1 uM TAS2R46 antagonist 3HDC by cytochrome C reduction assay. It counts as cell-based.

Data set [9] shares this target. The experiment in a line: Agonist activity at human TAS2R46 expressed in human BEAS2B cells assessed as antiinflammatory activity by measuring reduction in PMA-induced iNOS protein level at 10 uM incubated for 18 hrs by TRITC-phalloidin/DAPI staining based analysis. It is filed as cell-based.
Data set [10] shares this target. Put plainly: Agonist activity at human TAS2R46 expressed in PMA-induced human BEAS2B cells assessed as antiinflammatory activity by measuring increase in IL-4 gene expression at 10 uM incubated for 18 hrs by qRT-PCR analysis. It is filed as cell-based.
The target is the same in data set [11]. The experiment in a line: Agonist activity at human TAS2R46 expressed in PMA-induced human BEAS2B cells assessed as antiinflammatory activity by measuring increase in IL-10 gene expression at 1 uM incubated for 18 hrs by qRT-PCR analysis. It is filed as cell-based.
The target is the same in data set [12]. Put plainly: Agonist activity at human TAS2R46 expressed in human BEAS2B cells assessed as antiinflammatory activity by measuring reduction in PMA-induced MUC5AC expression at 1 uM incubated for 18 hrs by TRITC-phalloidin/DAPI staining based analysis. It counts as cell-based.
Data set [13] has the same target. The experiment in a line: Agonist activity at human TAS2R46 expressed in human BEAS2B cells assessed as antiinflammatory activity by measuring reduction in PMA-induced iNOS mRNA level at 10 uM incubated for 18 hrs by qRT-PCR analysis. It counts as cell-based.
In data set [14] the test system is BEAS-2B. The experiment in a line: Effect on basal superoxide anion production in human BEAS2B cells expressing human TAS2R46 at 1 uM after 1 hr by cytochrome C reduction assay. It counts as ADME, cell-based.
In data set [15] the target is T1, Taste receptor type 2 member 46 (Homo sapiens). The experiment in a line: Agonist activity at human TAS2R46 expressed in human BEAS2B cells assessed as antiinflammatory activity by measuring reduction in PMA-induced IL-1beta gene expression at 10 uM incubated for 18 hrs by qRT-PCR analysis. It is filed as cell-based.
For data set [16] the target is unchanged. Put plainly: Agonist activity at human TAS2R46 expressed in PMA-induced human BEAS2B cells assessed as antiinflammatory activity by measuring increase in IL-10 gene expression at 10 uM incubated for 18 hrs by qRT-PCR analysis. It is filed as cell-based.
The target is the same in data set [17]. Put plainly: Agonist activity at human TAS2R46 expressed in human BEAS2B cells assessed as effect on cytosolic calcium level at microM concentration by Fluo-2-AM dye based fluorescence assay. It is filed as functional, cell-based.
For data set [18] the target is unchanged. The experiment in a line: Agonist activity at human TAS2R46 expressed in human BEAS2B cells assessed as antioxidant activity by measuring reduction in PMA-induced superoxide anion generation at 10 uM preincubated for 1 hr followed by PMA addition and measured after 30 mins by cytochrome C reduction assay. It is filed as cell-based.
Data set [19] shares this target. Put plainly: Agonist activity at human TAS2R46 expressed in human BEAS2B cells assessed as antiinflammatory activity by measuring reduction in PMA-induced IL-1beta gene expression at 1 uM incubated for 18 hrs by qRT-PCR analysis. It is filed as cell-based.
Data set [20] relates to BEAS-2B. The experiment in a line: Effect on basal superoxide anion production in human BEAS2B cells expressing human TAS2R46 at 10 uM after 1 hr by cytochrome C reduction assay. It is filed as ADME, cell-based.
Data set [21] has as its target T1, Taste receptor type 2 member 46 (Homo sapiens). Put plainly: Agonist activity at human TAS2R46 expressed in human BEAS2B cells assessed as antioxidant activity by measuring reduction in PMA-induced superoxide anion generation at 1 uM preincubated for 1 hr followed by PMA addition and measured after 30 mins in presence of 1 uM TAS2R46 antagonist 3HDC by cytochrome C reduction assay. It is filed as cell-based.

Data set [22] has the same target. Put plainly: Agonist activity at human TAS2R46 expressed in human BEAS2B cells assessed as increase in cytosolic calcium level at 1 mM in presence of […] antagonist 3HDC by Fluo-2-AM dye based fluorescence assay. It is filed as functional, cell-based.
For data set [23] the target is unchanged. Put plainly: Agonist activity at human TAS2R46 expressed in human BEAS2B cells assessed as antiinflammatory activity by measuring reduction in PMA-induced iNOS mRNA level at 1 uM incubated for 18 hrs by qRT-PCR analysis. It is filed as cell-based.
Data set [24] has the same target. Put plainly: Agonist activity at human TAS2R46 expressed in human BEAS2B cells assessed as antiinflammatory activity by measuring reduction in PMA-induced iNOS protein level at 1 uM incubated for 18 hrs by TRITC-phalloidin/DAPI staining based analysis. It is filed as cell-based.
Data set [25] has the same target. Put plainly: Agonist activity at human TAS2R46 expressed in PMA-induced human BEAS2B cells assessed as antiinflammatory activity by measuring increase in IL-10 gene expression at 1 uM incubated for 18 hrs in presence of 1 uM TAS2R46 antagonist 3HDC by qRT-PCR analysis. It is filed as cell-based.
Data set [26] shares this target. The experiment in a line: Agonist activity at human TAS2R46 expressed in PMA-induced human BEAS2B cells assessed as antiinflammatory activity by measuring increase in IL-4 gene expression at 1 uM incubated for 18 hrs in presence of 1 uM TAS2R46 antagonist 3HDC by qRT-PCR analysis. It counts as cell-based.

The source made the active and inactive calls. No cut-off for these calls is given here.

Turning to `CC1=C[C@@H]2[C@H]3[C@H](C(C)=C4[C@H]5OC(=O)[C@@H](C)[C@@H]5CC[C@](C)(O)[C@@H]43)[C@@]13[C@@H]2[C@@](C)(O)CC[C@H]1[C@H](C)C(=O)O[C@@H]13`, the result in data set [1], in [3], in data set [5], in data set [6], in data set [8] and in [10] was inactive. For the same molecule, the result in data set [11], in data set [16], in data set [17] and in data set [21] was inactive. In addition, the outcome in data set [2], in data set [4], in data set [7], in data set [9], in data set [12] and in data set [13] was Active. For the same molecule, the result in data set [15], in data set [18] and in data set [19] was Active. The Activity result with BEAS-2B [14] and in the data set on BEAS-2B [20] was “Non-Toxic” in each case.
`CC1=C2C=C(C(C)NC(=O)N=[N+]=[N-])CC[C@](C)(O)[C@@H]2[C@H]2[C@@H]3CC4(C)O[C@@]5(C)CC[C@H]6[C@H](C)C(=O)O[C@@H]6C4([C@@H]35)[C@@H]12` (stereo not given in full): the outcome in data set [1], in [2], in [3], in data set [4], in data set [12] and in data set [22] was Active. Also, the result in [19] and in data set [24] was Active. For the same molecule, the result in data set [5], in data set [11], in data set [23] and in data set [21] was inactive. In addition, in the data set with BEAS-2B [14], the Activity entry was “Non-Toxic”.
With `COC(=O)[C@@H](C)C1=CC2=C(C)[C@H]3[C@H]([C@@H]4CC5(C)O[C@@]6(C)CC[C@H]7[C@H](C)C(=O)O[C@@H]7C35[C@@H]46)[C@H]2[C@@](C)(O)CC1`, the result in [2], in data set [3], in data set [4], in [5], in data set [11] and in data set [12] was Active. For the same molecule, the outcome in data set [19], in [23] and in data set [24] was Active. For the same molecule, the outcome in [25], in data set [22], in [26] and in data set [21] was inactive. The Activity result in the data set with BEAS-2B [14] is “Non-Toxic”.
Take `CC1=C2C=C([C@H](C)C(=O)OCCc3ccccc3)CC[C@](C)(O)[C@@H]2[C@H]2[C@@H]3CC4(C)O[C@@]5(C)CC[C@H]6[C@H](C)C(=O)O[C@@H]6C4([C@@H]35)[C@@H]12`: the result in data set [1], in data set [5], in data set [11] and in data set [21] was inactive. The outcome in data set [2], in data set [3], in data set [4], in data set [12], in [19] and in [23] was Active. In data set [24], the outcome was Active. For the same molecule, the Activity entry in the data set with BEAS-2B [14] is given as “Non-Toxic”.

The values above are taken from ChEMBL document CHEMBL4622880, “Anti-inflammatory Activity of Absinthin and Derivatives in Human Bronchoepithelial Cells” (J Nat Prod, 2020).
